According to patent publication US12527808B2, “Compounds useful to treat pain” (Amneal Pharmaceuticals LLC, priority 2019, dated 2026):

How the values were obtained:
Bradykinin B2 Receptor = biological target: T1, Bradykinin B2 Receptor (Homo sapiens, UniProt P30411); experiment: Radioligand binding assay for bradykinin B2 receptor
T1 construct: purchased; host or cells: transiently transfected CHO-K1 cells (membranes)
T1 sequence (P30411 1-391): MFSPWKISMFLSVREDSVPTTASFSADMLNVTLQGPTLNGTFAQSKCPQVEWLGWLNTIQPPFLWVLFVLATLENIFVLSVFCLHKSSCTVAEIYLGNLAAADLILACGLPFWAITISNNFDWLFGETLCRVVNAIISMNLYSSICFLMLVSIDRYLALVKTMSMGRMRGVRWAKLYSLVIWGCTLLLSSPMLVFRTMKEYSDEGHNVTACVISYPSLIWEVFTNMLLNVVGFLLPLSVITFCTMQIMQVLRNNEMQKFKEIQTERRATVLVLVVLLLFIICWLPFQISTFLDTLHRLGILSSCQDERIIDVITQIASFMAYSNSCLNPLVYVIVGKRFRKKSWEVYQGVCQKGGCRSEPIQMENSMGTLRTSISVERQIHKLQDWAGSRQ
Method: (§1) Example 10: Radioligand Binding Assay for Bradykinin B1 and B2 Receptor
(§2) Bradykinin receptor membrane (B1 & B2) was procured from commercial source. Competitive radioligand binding assay was done by filtration-based technique using membranes prepared from transiently transfected Chinese hamster ovary (CHO)—K1 cells. Briefly, different concentrations of Phenazopyridine (compound I-A) was added to 96 wells plate containing bradykinin membrane along with required controls. The assay plate was harvested onto a GF/B Unifier harvester plate and washed with cold wash buffer. Plate was dried in oven for 15 mins at 60° C. The membrane activity was analyzed based on the readout using MicroBeta from Perkin Elmer in Counts Per Minute (CPM). Percent inhibition of Bradykinin receptor activity was calculated at each concentration and summarized in the results.

Bradykinin B1 Receptor = biological target: T2, Bradykinin B1 Receptor (Homo sapiens, UniProt P46663); experiment: Radioligand binding assay for bradykinin B1 receptor
T2 construct: purchased; host or cells: transiently transfected CHO-K1 cells (membranes)
T2 sequence (P46663 1-353): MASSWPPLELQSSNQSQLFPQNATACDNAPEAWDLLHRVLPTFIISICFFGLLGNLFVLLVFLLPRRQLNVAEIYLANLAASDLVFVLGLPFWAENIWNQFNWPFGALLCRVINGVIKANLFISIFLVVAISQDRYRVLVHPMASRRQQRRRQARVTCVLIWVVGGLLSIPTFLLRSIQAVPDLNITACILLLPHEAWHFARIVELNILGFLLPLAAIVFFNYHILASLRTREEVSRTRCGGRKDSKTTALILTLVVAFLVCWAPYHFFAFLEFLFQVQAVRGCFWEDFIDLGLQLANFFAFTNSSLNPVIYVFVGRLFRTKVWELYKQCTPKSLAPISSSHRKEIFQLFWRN
Method: as §1, §2

Nc1ccc(/N=N/c2ccccc2)c(N)n1 [Phenazopyridine]
inhibition at 0.03 µM (Bradykinin B2 Receptor; 0.03 μM): 6% | inhibition at 0.1 µM (Bradykinin B2 Receptor; 0.10 μM): 13% | inhibition at 0.32 µM (Bradykinin B2 Receptor; 0.32 μM): 10% | inhibition at 1 µM (Bradykinin B2 Receptor; 1.00 μM): 37% | inhibition at 3.17 µM (Bradykinin B2 Receptor; 3.17 μM): 38% | inhibition at 10.01 µM (Bradykinin B2 Receptor; 10.01 μM): 59% | inhibition at 31.65 µM (Bradykinin B2 Receptor; 31.65 μM): 78% | inhibition at 100 µM (Bradykinin B2 Receptor; 100.00 μM): 98% | inhibition at 1 µM (Bradykinin B1 Receptor; 1.00 μM): 12% | inhibition at 10.01 µM (Bradykinin B1 Receptor; 10.01 μM): 49% | inhibition at 100 µM (Bradykinin B1 Receptor; 100.00 μM): 81%
